# Laboratory results as given in ChEMBL document CHEMBL3885861, “Open TG-GATES”.
# Species on record: Rattus norvegicus
# Experiment: Open TG-GATES - Regimen: Daily Repeat
# Assay type: toxicity, organism-based, Sprague-Dawley
# Set-up: regimen Daily Repeat, gender Male, age 6 weeks
# Conditions: in vivo, po, 0 mg/kg, route gavage, dose level Control; for APTT / Bas / Eos / Fbg / Hb / Ht / Lym / MCH / MCHC / MCV / Mono / Neu / PT / Plat / RBC / Ret / WBC: tissue Blood; for KIDNEY_L / KIDNEY_R / KIDNEY_TOTAL: tissue Kidney; for LIVER: tissue Liver; for A/G / ALP / ALT / AST / BUN / CRE / Ca / Cl / DBIL / GLC / IP / K / LDH / Na / PL / RALB / TBIL / TC / TG / TP / gamma-GTP: tissue Plasma
compound,measurement,setting,value
CC(C)(S)[C@@H](N)C(=O)O [PENICILLAMINE],TERMINAL_BW,"72 h, time 3 day",235.9 g
same,APTT,"72 h, time 3 day",15.9 s
same,Bas,"72 h, time 3 day",0.2%
same,Eos,"72 h, time 3 day",0.6%
same,Fbg,"72 h, time 3 day",305 mg/dL
same,Hb,"72 h, time 3 day",13.7 g/dL
same,Ht,"72 h, time 3 day",41.9%
same,Lym,"72 h, time 3 day",75.8%
same,MCH,"72 h, time 3 day",21.1 pg
same,MCHC,"72 h, time 3 day",32.7%
same,MCV,"72 h, time 3 day",64.6 fL
same,Mono,"72 h, time 3 day",3%
same,Neu,"72 h, time 3 day",19.6%
same,PT,"72 h, time 3 day",13.8 s
same,Plat,"72 h, time 3 day",131.2 x10_4/uL
same,RBC,"72 h, time 3 day",648.8 x10_4/ul
same,Ret,"72 h, time 3 day",7.1%
same,WBC,"72 h, time 3 day",113.2 x10_2/uL
same,KIDNEY_L,"72 h, time 3 day",0.9 g
same,KIDNEY_R,"72 h, time 3 day",0.9 g
same,KIDNEY_TOTAL,"72 h, time 3 day",1.9 g
same,LIVER,"72 h, time 3 day",11.2 g
same,A/G,"72 h, time 3 day",0.9
same,ALP,"72 h, time 3 day",1527 IU/L
same,ALT,"72 h, time 3 day",43.4 IU/L
same,AST,"72 h, time 3 day",69 IU/L
same,BUN,"72 h, time 3 day",14.6 mg/dL
same,CRE,"72 h, time 3 day",0.2 mg/dL
same,Ca,"72 h, time 3 day",11.1 mg/dL
same,Cl,"72 h, time 3 day",106.2 meq/L
same,DBIL,"72 h, time 3 day",0.014 mg/dL
same,GLC,"72 h, time 3 day",177.8 mg/dL
same,IP,"72 h, time 3 day",6.8 mg/dL
same,K,"72 h, time 3 day",4.1 meq/L
same,LDH,"72 h, time 3 day",84.4 IU/L
same,Na,"72 h, time 3 day",144.2 meq/L
same,PL,"72 h, time 3 day",171.8 mg/dL
same,RALB,"72 h, time 3 day",2.8 g/dL
same,TBIL,"72 h, time 3 day",0.018 mg/dL
same,TC,"72 h, time 3 day",90.2 mg/dL
same,TG,"72 h, time 3 day",118.8 mg/dL
same,TP,"72 h, time 3 day",5.8 g/dL
same,gamma-GTP,"72 h, time 3 day",1 IU/L
same,TERMINAL_BW,"[…], time 7 day",275.3 g
same,TERMINAL_BW,"[…], time 14 day",335.9 g
same,TERMINAL_BW,"[…], time 28 day",405.5 g
same,APTT,"[…], time 7 day",17.9 s
same,Bas,"[…], time 7 day",0%
same,Eos,"[…], time 7 day",1%
same,Fbg,"[…], time 7 day",320.4 mg/dL
same,Hb,"[…], time 7 day",14.2 g/dL
same,Ht,"[…], time 7 day",43.2%
same,Lym,"[…], time 7 day",72.8%
same,MCH,"[…], time 7 day",21 pg
same,MCHC,"[…], time 7 day",32.8%
same,MCV,"[…], time 7 day",64.1 fL
same,Mono,"[…], time 7 day",2.8%
same,Neu,"[…], time 7 day",22.4%
same,PT,"[…], time 7 day",13.9 s
same,Plat,"[…], time 7 day",121.1 x10_4/uL
same,RBC,"[…], time 7 day",674.8 x10_4/ul
same,Ret,"[…], time 7 day",5.9%
same,WBC,"[…], time 7 day",98.3 x10_2/uL
same,APTT,"[…], time 14 day",19.2 s
same,Bas,"[…], time 14 day",0%
same,Eos,"[…], time 14 day",1.2%
same,Fbg,"[…], time 14 day",292.4 mg/dL
same,Hb,"[…], time 14 day",14.8 g/dL
same,Ht,"[…], time 14 day",43.7%
same,Lym,"[…], time 14 day",80.4%
same,MCH,"[…], time 14 day",20.4 pg
same,MCHC,"[…], time 14 day",33.9%
same,MCV,"[…], time 14 day",60.2 fL
same,Mono,"[…], time 14 day",2%
same,Neu,"[…], time 14 day",15.8%
same,PT,"[…], time 14 day",14.2 s
same,Plat,"[…], time 14 day",122.3 x10_4/uL
same,RBC,"[…], time 14 day",724.8 x10_4/ul
same,Ret,"[…], time 14 day",4.5%
same,WBC,"[…], time 14 day",90.4 x10_2/uL
same,APTT,"[…], time 28 day",18.4 s
same,Bas,"[…], time 28 day",0%
same,Eos,"[…], time 28 day",1.4%
same,Fbg,"[…], time 28 day",300.8 mg/dL
same,Hb,"[…], time 28 day",15.6 g/dL
same,Ht,"[…], time 28 day",45.4%
same,Lym,"[…], time 28 day",79.2%
same,MCH,"[…], time 28 day",19.8 pg
same,MCHC,"[…], time 28 day",34.2%
same,MCV,"[…], time 28 day",58 fL
same,Mono,"[…], time 28 day",2.2%
same,Neu,"[…], time 28 day",16.2%
same,PT,"[…], time 28 day",14.1 s
same,Plat,"[…], time 28 day",103.8 x10_4/uL
same,RBC,"[…], time 28 day",783.8 x10_4/ul
same,Ret,"[…], time 28 day",2.6%
same,WBC,"[…], time 28 day",93.7 x10_2/uL
same,KIDNEY_L,"[…], time 7 day",1.1 g
same,KIDNEY_R,"[…], time 7 day",1.1 g
same,KIDNEY_TOTAL,"[…], time 7 day",2.2 g
same,KIDNEY_L,"[…], time 14 day",1.3 g
same,KIDNEY_R,"[…], time 14 day",1.3 g
same,KIDNEY_TOTAL,"[…], time 14 day",2.6 g
same,KIDNEY_L,"[…], time 28 day",1.4 g
same,KIDNEY_R,"[…], time 28 day",1.4 g
same,KIDNEY_TOTAL,"[…], time 28 day",2.8 g
same,LIVER,"[…], time 7 day",13 g
same,LIVER,"[…], time 14 day",15.3 g
same,LIVER,"[…], time 28 day",16.3 g
same,A/G,"[…], time 7 day",0.9
same,ALP,"[…], time 7 day",1428 IU/L
same,ALT,"[…], time 7 day",45.4 IU/L
same,AST,"[…], time 7 day",68.6 IU/L
same,BUN,"[…], time 7 day",15 mg/dL
same,CRE,"[…], time 7 day",0.2 mg/dL
same,Ca,"[…], time 7 day",10.9 mg/dL
same,Cl,"[…], time 7 day",105.2 meq/L
same,DBIL,"[…], time 7 day",0.018 mg/dL
same,GLC,"[…], time 7 day",189.8 mg/dL
same,IP,"[…], time 7 day",6.6 mg/dL
same,K,"[…], time 7 day",4 meq/L
same,LDH,"[…], time 7 day",71.6 IU/L
same,Na,"[…], time 7 day",142.2 meq/L
same,PL,"[…], time 7 day",159 mg/dL
same,RALB,"[…], time 7 day",2.8 g/dL
same,TBIL,"[…], time 7 day",0.028 mg/dL
same,TC,"[…], time 7 day",74.4 mg/dL
same,TG,"[…], time 7 day",131.2 mg/dL
same,TP,"[…], time 7 day",5.8 g/dL
same,gamma-GTP,"[…], time 7 day",0.8 IU/L
same,A/G,"[…], time 14 day",0.9
same,ALP,"[…], time 14 day",1246.2 IU/L
same,ALT,"[…], time 14 day",41.4 IU/L
same,AST,"[…], time 14 day",68.2 IU/L
same,BUN,"[…], time 14 day",16.2 mg/dL
same,CRE,"[…], time 14 day",0.2 mg/dL
same,Ca,"[…], time 14 day",10.9 mg/dL
same,Cl,"[…], time 14 day",105.2 meq/L
same,DBIL,"[…], time 14 day",0.01 mg/dL
same,GLC,"[…], time 14 day",189 mg/dL
same,IP,"[…], time 14 day",6.2 mg/dL
same,K,"[…], time 14 day",4.2 meq/L
same,LDH,"[…], time 14 day",107.4 IU/L
same,Na,"[…], time 14 day",143 meq/L
same,PL,"[…], time 14 day",155.6 mg/dL
same,RALB,"[…], time 14 day",2.8 g/dL
same,TBIL,"[…], time 14 day",0.024 mg/dL
same,TC,"[…], time 14 day",71.4 mg/dL
same,TG,"[…], time 14 day",150.4 mg/dL
same,TP,"[…], time 14 day",6.1 g/dL
same,gamma-GTP,"[…], time 14 day",0.8 IU/L
same,A/G,"[…], time 28 day",0.9
same,ALP,"[…], time 28 day",945.4 IU/L
same,ALT,"[…], time 28 day",29.6 IU/L
same,AST,"[…], time 28 day",58.4 IU/L
same,BUN,"[…], time 28 day",15.4 mg/dL
same,CRE,"[…], time 28 day",0.3 mg/dL
same,Ca,"[…], time 28 day",10.9 mg/dL
same,Cl,"[…], time 28 day",105.8 meq/L
same,DBIL,"[…], time 28 day",0.008 mg/dL
same,GLC,"[…], time 28 day",185 mg/dL
same,IP,"[…], time 28 day",6 mg/dL
same,K,"[…], time 28 day",3.6 meq/L
same,LDH,"[…], time 28 day",51.6 IU/L
same,Na,"[…], time 28 day",144 meq/L
same,PL,"[…], time 28 day",147.4 mg/dL
same,RALB,"[…], time 28 day",2.9 g/dL
same,TBIL,"[…], time 28 day",0.052 mg/dL
same,TC,"[…], time 28 day",67.6 mg/dL
same,TG,"[…], time 28 day",140.8 mg/dL
same,TP,"[…], time 28 day",6.3 g/dL
same,gamma-GTP,"[…], time 28 day",1.2 IU/L
